Assay results taken from EP0061283A1, “Antiviral agents, their preparation and use” (BEECHAM GROUP PLC, priority 1981, dated 1982).
“And” between values parts separate entries of the source, which are not always exact repeats. Identical values can stand only once.

Legend:
[1] = Minimum concentration killing the cell monolayer (MTD) in the plaque reduction test; type: cell-based, African Green Monkey; details: monkey; minimum concentration which killed the cell monolayer; Vero cells, 37°C for 6 days
Procedure: (§1) Vero (African Green Monkey Kidney) cells were grown to confluence in 6 well multidishes, each well being 3.5 cm in diameter. The cells were incubated with Herpes simplex type 1 virus (HFEM strain) and overlaid with 0.5 ml of 0.9% agarose (w/v) in maintenance medium containing the test compound at a range of concentrations from 50 µg/ml in half-log dilution steps. The virus infected cultures were then incubated at 37°C for 6 days before fixing in 4% formaldehyde solution and staining with carbolfuchsin. The dishes were then examined to find what concentration of test compound causing a 50% reduction in the number of virus plaques formed (PDD50 value) and the minimum concentration of test compound which killed the cell monolayer, leaving a clear zone devoid of cells and virus plaques (MTD).

[2] = system: Herpes simplex type 1 virus (HFEM strain); test: Plaque reduction test in virus-infected Vero cell monolayers; type: cell-based; details: Human alphaherpesvirus 1, 144 h, concentration causing a 50% reduction in the number of virus plaques, Vero cells, 37°C for 6 days, read-out: PDD50 (the source's name)
Procedure: as §1

| IC50 [2] | Compound | MCC at 144 h [1] |
| --- | --- | --- |
| 0.32 µg/mL and 850 nM | CC(=O)OC[C@H]1O[C@@H](n2cc(/C=C/Br)c(=O)[nH]c2=O)C[C@@H]1O [Example 8, 5'-O-Acetyl-E-5-(2-bromovinyl)-2'-deoxyuridine] | > 100 µg/mL |
| 0.2 µg/mL and 420 nM | CCCC(=O)OC[C@H]1O[C@@H](n2cc(/C=C/Br)c(=O)[nH]c2=O)C[C@@H]1OC(=O)CCC [Example 1, E-5-(2-Bromovinyl)-3',5'-di-O-butyryl-2'-deoxyuridine] | > 100 µg/mL |
| 0.18 µg/mL and 430 nM | CCCCC(=O)O[C@H]1C[C@H](n2cc(/C=C/Br)c(=O)[nH]c2=O)O[C@@H]1CO [Example 7, E-5-(2-Bromovinyl)-3'-O-valeryl-2'-deoxyuridine] | > 100 µg/mL |
| 0.16 µg/mL and 380 nM | CCCCC(=O)OC[C@H]1O[C@@H](n2cc(/C=C/Br)c(=O)[nH]c2=O)C[C@@H]1O [Example 9, E-5-(2-Bromovinyl)-5'-O-valeryl-2'-deoxyuridine] | > 100 µg/mL |
| 0.52 µg/mL and 1.3 µM | CC(C)(C)C(=O)OC[C@H]1O[C@@H](n2cc(/C=C/Br)c(=O)[nH]c2=O)C[C@@H]1O [Example 13, E-5-(2-Bromoyinyl)-5'-O-pivaloyl-2'-deoxyuridine] | > 100 µg/mL |
| 0.18 µg/mL and 400 nM | O=C(O)CCC(=O)O[C@H]1C[C@H](n2cc(/C=C/Br)c(=O)[nH]c2=O)O[C@@H]1CO [Example 11b, E-5-(2-bromovinyl)-3'-O-(3-carboxypropionyl)-2'-deoxyuridine] | > 100 µg/mL |
| 0.2 µg/mL and 400 nM | CCCCC(=O)OC[C@H]1O[C@@H](n2cc(/C=C/Br)c(=O)[nH]c2=O)C[C@@H]1OC(=O)CCCC [Example 2, E-5-(2-Bromovinyl)-3',5'-di-O-valeryl-2'-deoxyuridine] | > 100 µg/mL |
| 55 µg/mL and 103 µM | O=C(O)CCC(=O)OC[C@H]1O[C@@H](n2cc(/C=C/Br)c(=O)[nH]c2=O)C[C@@H]1OC(=O)CCC(=O)O [Example 10, E-5-(2-Bromovinyl)-3'.5'-di-O-(3-carboxypropionyl)-2'-deoxyuridine monohydrate] | > 100 µg/mL |
| 0.35 µg/mL and 800 nM | O=C(O)CCC(=O)OC[C@H]1O[C@@H](n2cc(/C=C/Br)c(=O)[nH]c2=O)C[C@@H]1O [Example 12, E-5-(2-bromovinyl)-5'-O-(3-carboxypropionyl)-2'-deoxyuridine] | > 100 µg/mL |
| 8.5 µg/mL and 17 µM | CC(C)(C)C(=O)OC[C@H]1O[C@@H](n2cc(/C=C/Br)c(=O)[nH]c2=O)C[C@@H]1OC(=O)C(C)(C)C [Example 14, E-5-(2-bromovinyl)-3',5'-di-0-pivaloyl-2'-deoxyuridine] | > 100 µg/mL |
| 0.41 µg/mL and 1.1 µM | CC(=O)O[C@H]1C[C@H](n2cc(/C=C/Br)c(=O)[nH]c2=O)O[C@@H]1CO [Example 6, 3'-O-Acetyl-E-5-(2-bromovinyl)-2'-deoxyuridine] | > 100 µg/mL |
